Reference: PubChem BioAssay AID1259411 (Chemical Carcinogenesis Research Information System (CCRIS), 2018)
Calls of active or inactive are those of the source. No rule for the calls is given here.

Tested on: rodent carcinogenicity bioassays, tumor incidence
Assay: CCRIS carcinogenicity studies
Summary of the method: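 NCI-built, expert-reviewed records of carcinogenicity and related test outcomes (mutagenicity, tumor promotion/inhibition) compiled from published and report sources, historical span 1985-2011, not updated.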

SMILES: CN(C)CCN(C)N=O
- carcinogen call (Species: HAMSTER, Strain/Sex: SYRIAN/FEMALE, Route: INTRAGASTRIC, Dose: 0, 36 MG/ML CORN OIL/ETHYL ACETATE (2:1) SOLUTION ADMINISTERED AS 0.2 ML 1/WK FOR 61 WK (STUDY DURATION: 106 WK), Tumor Site: Type of Lesion: NASAL CAVITY: ADENOMA, ESOPHAGUS: CARCINOMA, PAPILLOMA): active; positive
- carcinogen call (Species: HAMSTER, Strain/Sex: SYRIAN/MALE, Route: INTRAGASTRIC, Dose: 0, 36 MG/ML CORN OIL/ETHYL ACETATE (2:1) SOLUTION ADMINISTERED AS 0.2 ML 1/WK FOR 61 WK (STUDY DURATION: 106 WK), Tumor Site: Type of Lesion: NASAL CAVITY: ADENOMA, CARCINOMA, LIVER: HEPATOCELLULAR TUMOR): active; positive
- carcinogen call (Species: RAT, Strain/Sex: F344/FEMALE, Route: GAVAGE, Dose: 0, 14, MG/WK FOR A TOTAL DOSE OF 2.2 MMOL (STUDY DURATION: 40 WK), Dose: 0, 14, MG/WK FOR A TOTAL DOSE OF 2.2 MMOL (STUDY DURATION: 40 WK), Tumor Site: Type of Lesion: ESOPHAGUS: TUMOR, NASAL MUCOSA: TUMOR): active; positive
- carcinogen call (Species: RAT, Strain/Sex: F344/FEMALE, Route: INTRAGASTRIC, Dose: 0, 36 MG/ML CORN OIL/ETHYL ACETATE (2:1) SOLUTION ADMINISTERED AS 0.2 ML 2/WK FOR 20 WK (STUDY DURATION: 38 WK), Tumor Site: Type of Lesion: NASAL CAVITY: ADENOMA, ESOPHAGUS: CARCINOMA, PAPILLOMA): active; positive
- carcinogen call (Species: RAT, Strain/Sex: F344/FEMALE, Route: INTRAVESICULAR, Dose: 0, 7 MG IN 0.2 ML ETHANOL: DEIONIZED WATER (1:3) 2/WK FOR 23 WK (TOTAL DOSE 2.5 NMOL) (STUDY DURATION: LIFESPAN), Tumor Site: Type of Lesion: ESOPHAGUS: TUMOR, NASAL MUCOSA: TUMOR): active; positive
- carcinogen call (Species: RAT, Strain/Sex: F344/MALE, Route: GAVAGE, Dose: 0, 14 MG/WK FOR A TOTAL DOSE OF 2.2 MMOL (STUDY DURATION: 40 WK), Tumor Site: Type of Lesion: ESOPHAGUS: TUMOR, NASAL MUCOSA: TUMOR): active; positive
- carcinogen call (Species: RAT, Strain/Sex: F344/MALE, Route: INTRAGASTRIC, Dose: 0, 36 MG/ML CORN OIL/ETHYL ACETATE (2:1) SOLUTION ADMINISTERED AS 0.2 ML 2/WK FOR 20 WK (STUDY DURATION: 38 WK), Tumor Site: Type of Lesion: NASAL CAVITY: ADENOMA, CARCINOMA, ESOPHAGUS: CARCINOMA, PAPILLOMA): active; positive
- carcinogen call (Species: RAT, Strain/Sex: F344/MALE, Route: ORAL, Dose: 0, 144 MG/L DEIONIZED DRINKING WATER ADMINISTERED AS 80 ML/WK FOR 20 WK (STUDY DURATION: 38 WK), Tumor Site: Type of Lesion: NASAL CAVITY: ADENOMA, ESOPHAGUS: CARCINOMA, PAPILLOMA): active; positive

SMILES: Clc1ccc(-c2cc(Cl)c(Cl)cc2Cl)cc1Cl
- carcinogen call (Species: Rat, Strain/Sex: Harlan Sprague-Dawley/Female (80/Group), Route: Oral, Dose: 0, 100, 220, 460, 1000, 4600 ug/kg in corn oil, by gavage, 5 d/wk for 2 yr, Dose: 0, 100, 220, 460, 1000, 4600 ug/kg in corn oil, by gavage, 5 d/wk for 2 yr, Tumor Site: Type of Lesion: Liver: cholangiocarcinoma (0/52, 0/51, 0/52, 0/52, 3/52, 36/49, 29/49), hepatocellular adenoma (0/52, 1/51, 1/52, 4/52): active; positive

SMILES: Cc1c(N)nc(C)c2c1[nH]c1ccccc12
- carcinogen call (Species: MOUSE, Strain/Sex: CDF1/FEMALE, Route: ORAL, Dose: 0, 200 PPM IN DIET FOR 621 D, Tumor Site: Type of Lesion: LIVER: HEPATOCELLULAR CARCINOMA): active; positive
- carcinogen call (Species: MOUSE, Strain/Sex: DDY/FEMALE, Route: BLADDER IMPLANT, Dose: 0, 5% IN PARAFFIN PELLET (STUDY DURATION: 40 WK), Tumor Site: Type of Lesion: URINARY BLADDER: TRANSITIONAL CELL CARCINOMA): active; positive
- carcinogen call (Species: RAT, Strain/Sex: F344/FEMALE, Route: ORAL, Dose: 0, 0.02% IN PELLET DIET FOR DURATION OF STUDY (STUDY DURATION: 365 D), Tumor Site: Type of Lesion: LIVER: TRABECULAR CARCINOMA, ADENOCARCINOMA): active; positive
- carcinogen call (Species: RAT, Strain/Sex: F344/MALE, Route: ORAL, Dose: 0, 0.015% IN PELLET DIET FOR DURATION OF STUDY (STUDY DURATION: 365 D), Tumor Site: Type of Lesion: LIVER: TRABECULAR CARCINOMA, ADENOCARCINOMA): active; positive

SMILES: C[C@]12CC[C@@H]3C4=C(CC[C@H]3[C@@H]1CCC2=O)C(=O)C(=O)C=C4
- carcinogen call (Species: RAT, Strain/Sex: STRAIN-CD/FEMALE, Route: INJECTION, Dose: 0, 30 UMOL (TOTAL DOSE) 1/6 INJECTED UNDER EACH OF 3 THORACIC AND 3 INGUINAL NIPPLES ONCE (STUDY DURATION: 44 WK)): inactive; negative

SMILES: O=C(O)[C@H]1O[C@@H](Nc2ccc3c(c2)Cc2ccccc2-3)[C@H](O)[C@@H](O)[C@@H]1O
- carcinogen call (Species: RAT, Strain/Sex: F344/MALE, Route: INJECTION, Dose: 0;1 UMOL IN 0.5 ML OF SOLUTION CONTAINING 0.4 ML PHOSPHATE BUFFERED SALINE/ GENTAMYCIN (PH 7) AND 0.1 ML DMSO INJECTED I): inactive; negative

SMILES: Cc1cc2ccccc2c2ccc3c(c12)[C@@H]1O[C@@H]1[C@H](O)[C@H]3O
- carcinogen call (Species: MOUSE, Strain/Sex: ICR/FEMALE, Route: INTRAPERITONEAL, Dose: 0, 8 NMOL IN 5 µL DMSO ON D 1, 16 NMOL IN 10 µL ON D 8 AND 32 NMOL IN 20 µL ON D 15 OF LIFE (STUDY DURATION: 35 WK), Tumor Site: Type of Lesion: LUNG: TUMOR): active; positive
- carcinogen call (Species: MOUSE, Strain/Sex: ICR/FEMALE, Route: INTRAPERITONEAL, Dose: 0, 8 NMOL IN 5 µL DMSO TO PUPS ON D 1/OF LIFE THEN 16 NMOL IN 10 µL ON D 8 AND 3 NMOL IN 20 µL ON D 15 (STUDY DURATION:, Tumor Site: Type of Lesion: LUNG: TUMOR): active; positive
- carcinogen call (Species: MOUSE, Strain/Sex: ICR/FEMALE, Route: INTRAPERITONEAL, Dose: 8 NMOL/5 µL DMSO ON DAY 1, 16 NMOL/10 µL ON DAY 8, AND 32 NMOL/20 µL ON DAY 15 OF AGE (STUDY DURATION: 35 WK), Tumor Site: Type of Lesion: LUNG: TUMORS): active; positive
- carcinogen call (Species: MOUSE, Strain/Sex: ICR/MALE, Route: INTRAPERITONEAL, Dose: 0, 8 NMOL IN 5 µL DMSO ON D 1, 16 NMOL IN 10 µL ON D 8 AND 32 NMOL IN 20 µL ON D 15 OF LIFE (STUDY DURATION: 35 WK), Tumor Site: Type of Lesion: LUNG: TUMOR, LIVER: TUMOR): active; positive
- carcinogen call (Species: MOUSE, Strain/Sex: ICR/MALE, Route: INTRAPERITONEAL, Dose: 0, 8 NMOL IN 5 µL DMSO TO PUPS ON D 1/OF LIFE THEN 16 NMOL IN 10 µL ON D 8 AND 3 NMOL IN 20 µL ON D 15 (STUDY DURATION:, Tumor Site: Type of Lesion: LUNG: TUMOR, LIVER: TUMOR): active; positive
- carcinogen call (Species: MOUSE, Strain/Sex: ICR/MALE, Route: INTRAPERITONEAL, Dose: 8 NMOL/5 µL DMSO ON DAY 1, 16 NMOL/10 µL ON DAY 8, AND 32 NMOL/20 µL ON DAY 15 OF AGE (STUDY DURATION: 35 WK), Tumor Site: Type of Lesion: LUNG: TUMORS, LIVER: TUMORS): active; positive

SMILES: O=c1[nH]c(=O)n(C2CCCO2)cc1F (centres undefined)
- carcinogen call (Species: MOUSE, Strain/Sex: C57BL/CBA/FEMALE, Route: GAVAGE, Dose: 0, 40 MG/KG IN 0.2 ML OF A STARCH/WATER SUSPENSION 2/WK FOR 12 MO (STUDY DURATION: LIFETIME)): inactive; negative
- carcinogen call (Species: MOUSE, Strain/Sex: C57BL/CBA/MALE, Route: GAVAGE, Dose: 0, 40 MG/KG IN 0.2 ML OF A STARCH/WATER SUSPENSION 2/WK FOR 12 MO (STUDY DURATION: LIFETIME)): inactive; negative
- carcinogen call (Species: RAT, Strain/Sex: WISTAR/FEMALE, Route: GAVAGE, Dose: 0, 60 MG/KG IN 0.5 ML OF A STARCH/WATER SUSPENSION 2/WK FOR 12 MO (STUDY DURATION: LIFETIME)): inactive; negative
- carcinogen call (Species: RAT, Strain/Sex: WISTAR/MALE, Route: GAVAGE, Dose: 0, 60 MG/KG IN 0.5 ML OF A STARCH/WATER SUSPENSION 2/WK FOR 12 MO (STUDY DURATION: LIFETIME)): inactive; negative

SMILES: CC(C)Nc1nc(Cl)nc(NCC(=O)O)n1
- carcinogen call (Species: Mouse, Strain/Sex: Crl:CD-1(ICR)BR/Female, Route: Oral, Dose: 0, 10, 30, 300, 900 ppm in diet for 18 mo, Dose: 0, 10, 30, 300, 900 ppm in diet for 18 mo): inactive; negative
- carcinogen call (Species: Mouse, Strain/Sex: Crl:CD-1(ICR)BR/Male, Route: Oral, Dose: 0, 10, 30, 300, 900 ppm in diet for 18 mo, Dose: 0, 10, 30, 300, 900 ppm in diet for 18 mo, Tumor Site: Type of Lesion: Liver: Multiple hepatocellular adenomas (3/60 at 900 ppm vs. 0/60 in controls) Blood Vessels: Hemangiosarcomas (2/60 at): active; positive (only at highest dose)
- carcinogen call (Species: Rat, Strain/Sex: Crl:CD BR/Female, Route: Oral, Dose: 0, 5, 15, 30, 300, 900 ppm in diet for 24 mo, Dose: 0, 5, 15, 30, 300, 900 ppm in diet for 24 mo): inactive; negative
- carcinogen call (Species: Rat, Strain/Sex: Crl:CD BR/Male, Route: Oral, Dose: 0, 5, 15, 30, 300, 900 ppm in diet for 24 mo, Dose: 0, 5, 15, 30, 300, 900 ppm in diet for 24 mo, Tumor Site: Type of Lesion: Thyroid: Thyroid follicular cell adenoma): active; positive (at highest dose only); ca dpr describes as a possible adverse effect
